According to the supplement of paper PMC10307832:

What was measured:
Test in all cases: relative viability (nuclei count vs DMSO), 5 days (fraction); higher = more cells survive
[1] = compound: C1CC1C(=O)NC2=NNC3=C2C=CC(=C3)C4=CC(=CC=C4)C(=O)NC5CC5 [XMD13-2] + COc1cc2c(Oc3ccc(NC(=O)C4(C(=O)Nc5ccc(F)cc5)CC4)cc3F)ccnc2cc1OCCCN1CCOCC1 [Foretinib] (partner 0.25 µM)
Summary of the method: (§1)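 Lung cancer cell lines were seeded in 1536-well plates and dosed by pin tool the next day, with either a single drug or a fixed anchor-drug dose combined with five library-drug doses (not always all listed) spaced in √10 steps. Five days later, one step fixed the cells and stained their nuclei (final 0.05% Triton X-100, 1% formaldehyde, 1 ug/ml Hoechst), and nuclei were counted on 4× images. Relative viability is the nuclei count in treated wells divided by the count in vehicle wells, and each value is the median of duplicate plates.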

[2] = compound: C1CC1C(=O)NC2=NNC3=C2C=CC(=C3)C4=CC(=CC=C4)C(=O)NC5CC5 [XMD13-2] + CS(=O)(=O)N1CCN(Cc2cc3nc(-c4cccc5[nH]ncc45)nc(N4CCOCC4)c3s2)CC1 [Pictilisib] (partner 1 µM)
Summary of the method: as §1

[3] = compound: Cc1ccc(C(=O)Nc2cccc(C(F)(F)F)c2)cc1Nc1cncc(C(N)=O)c1 [ALW-II-49-7] + CCNC(=O)c1noc(-c2cc(C(C)C)c(O)cc2O)c1-c1ccc(CN2CCOCC2)cc1 [Luminespib] (partner 0.01 µM)
Summary of the method: as §1

[4] = compound: Cc1nc(Nc2ncc(C(=O)Nc3c(C)cccc3Cl)s2)cc(N2CCN(CCO)CC2)n1 [Dasatinib] + CS(=O)(=O)CCNCc1ccc(-c2ccc3ncnc(Nc4ccc(OCc5cccc(F)c5)c(Cl)c4)c3c2)o1 [Lapatinib] (partner 2 µM)
Summary of the method: as §1

Cell Line	relative viability ([1]; first compound 0.05 µM)	relative viability ([1]; first compound 0.1581 µM)	relative viability ([1]; first compound 0.5 µM)	relative viability ([1]; first compound 1.581 µM)	relative viability ([1]; first compound 5 µM)	relative viability ([2]; first compound 0.05 µM)	relative viability ([2]; first compound 0.1581 µM)	relative viability ([2]; first compound 0.5 µM)	relative viability ([2]; first compound 1.581 µM)	relative viability ([2]; first compound 5 µM)	relative viability ([3]; first compound 0.08 µM)	relative viability ([3]; first compound 0.253 µM)	relative viability ([3]; first compound 0.8 µM)	relative viability ([3]; first compound 2.53 µM)	relative viability ([3]; first compound 8 µM)	relative viability ([4]; first compound 0.005 µM)	relative viability ([4]; first compound 0.01581 µM)	relative viability ([4]; first compound 0.05 µM)	relative viability ([4]; first compound 0.1581 µM)	relative viability ([4]; first compound 0.5 µM)
NCI-H1915	1.12	1.08	1.12	1.11	1.21	0.981	0.884	1.07	0.9	0.919	0.745	0.612	0.679	0.493	0.441	0.939	0.892	0.87	0.382	0.242
NCI-H650	1.16	1.02	1.14	1.06	0.972	0.921	0.827	0.924	0.859	0.801	0.853	0.972	0.632	0.722	0.526	0.471	0.907	0.723	0.555	0.387
NCI-H1650	1.36	1.07	1.15	0.967	1.81	0.687	0.452	0.644	0.542	0.541	0.199	0.169	0.209	0.19	0.206	0.552	0.5	0.441	0.381	0.325
NCI-H2009	1.3	1.2	1.2	1.17	1.3	0.838	0.945	0.904	0.822	0.566	1.04	1.02	1.04	0.845	0.728	1.13	1	0.96	0.305	0.151
COR-L23	1.14	0.986	0.977	0.986	0.942	0.8	0.72	0.857	0.818	0.64	0.651	0.465	0.521	0.774	0.808	0.983	0.853	0.955	0.74	0.737
NCI-H460	1.1	1.11	1.05	1.06	1.01	0.532	0.324	0.363	0.4	0.36	0.0293	0.0319	0.0397	0.0303	0.0275	1.06	0.598	0.743	0.482	0.376
HCC-827	1.11	1.04	0.951	1.05	0.704	1.01	0.901	1.18	0.913	0.67	0.795	0.587	0.678	0.683	1.76	0.173	0.18	0.139	0.16	0.131
NCI-H322M	1.06	1.02	0.909	0.971	1.09	0.593	0.495	0.451	0.501	0.578	0.897	0.762	0.965	0.868	0.833	0.582	0.345	0.373	0.246	0.189
NCI-H1666	1.12	0.998	0.913	0.926	0.982	0.566	0.479	0.59	0.349	0.492	0.951	0.999	1.04	1.12	1	0.582	0.482	0.522	0.447	0.224
NCI-H1563	0.883	1.06	0.99	0.961	0.866	0.581	0.665	0.737	0.651	0.605	0.531	0.487	0.503	0.495	0.457	0.868	0.708	0.758	0.656	0.506
NCI-H1793	0.84		0.966	0.791	0.68	0.288	0.442	0.373	0.403	0.192	0.146	0.197	0.195	0.177	0.175	0.587	0.46	0.349	0.622	0.58
NCI-H1437	1.2	1.25	1.25	1.24	1.27	0.522	0.454	0.601	0.509	0.382	1.13	1.12	1.11	1.08	1.06	0.785	0.784	0.809	0.752	0.218
NCI-H358	0.805	0.767	0.904	0.685	0.335	0.32	0.24	0.354	0.313	0.365	0.272	0.318	0.244	0.322	0.245	0.484	0.377	0.295	0.251	0.291
NCI-H1355	1.08	0.944	1.04	1.08	1.1	0.45	0.406	0.415	0.496	0.366	0.722	0.628	0.658	0.562	0.708	0.988	0.902	0.898	0.704	0.49
